Data on 20 molecules can be found in paper PMC6266488, “Synthesis and Evaluation of Spumigin Analogues Library with Thrombin Inhibitory Activity” (Marine Drugs, 2018).

Like-named read-outs stand apart in the source and are kept apart here. Square brackets hold non-standard residues; d marks the D form. Peptide text beside a SMILES is read from it. d(hPhe) = N[C@H](CCc1ccccc1)C(=O)O; dPhLac = O=C(O)[C@H](O)Cc1ccccc1

Experiment [1] has as its target T1, Thrombin from human plasma (Homo sapiens, UniProt P00734).
T1 construct: Thrombin from human plasma; purchased Sigma; host or cells: human plasma
Nature of the experiment: Enzyme amidolytic assay, thrombin inhibition (chromogenic substrate S-2238). Type of experiment: biochemical. Particulars: for Ki: Ki Thrombin, S-2238 substrate, 25 °C, Cheng and Prusoff. The protocol:
(§1) The enzyme amidolytic method for determining inhibition was based on the spectrophotometric determination of absorbance of the product formed after amide bond cleavage of a chromogenic substrate in the presence of the enzyme. Ki, which is a quantitative measure of inhibitor potency, was determined from the kinetics of substrate hydrolysis with and without the addition of the inhibitor. Measurements (spectrophotometer, BioTek Synergy H4, BioTek Instruments, Winooski, VT, USA) were performed in 96-well microtiter plates with a final volume of 200 µL. Thrombin (Thrombin from human plasma, Sigma, Taufkirchen, Germany) was tested at a final concentration of 0.5 NIH E/mL with the substrate S-2238 (H-D-Phenylalanyl-L-pipecolyl-L-arginine-p-nitroaniline dihydrochloride, Chromogenix AB, Mondal, Sweden) at 20 and 40 mM final concentration, and factor Xa (Factor Xa from bovine plasma, Chromogenix) at the final concentration of 1 mBAEE E/mL with the substrate S-2222 (N-Benzoyl-L-isoleucyl-L-glutamyl-glycyl-L-arginine-p-nitroaniline hydrochloride and its methyl ester, Chromogenix) at 100 and 200 mM final concentrations. Trypsin (Trypsin from bovine pancreas, Sigma) was assayed at a final concentration of 0.5 nkat/mL using the substrate S-2222 (Chromogenix) at 50 and 100 mM final concentrations. Inhibitors were dissolved in DMSO (concentration of stock solutions, 10 mmol/L) and diluted with distilled water to concentrations from […]. Reaction rates were measured in the presence and the absence of the inhibitor. Then, 50 µL HBSA buffer, 50 µL solution of each inhibitor concentration (or of HBSA buffer in case of measurement without inhibitor), and 50 µL of enzyme solution were pipetted into the microtiter wells. The plate was incubated for 15 min at 25 °C and then […] of chromogenic substrate was added. Absorbance at 405 nm at 25 °C was measured every 10 s. Measurements were carried out in triplicate with three concentrations of the inhibitor and two concentrations of the substrate. For every combination of concentrations, Ki was calculated from the change of absorbance in the initial, linear part of the curve according to the method of Cheng and Prusoff and the final result was given as their average value.

The target in experiment [2] is T2, Factor Xa from bovine plasma (Bos taurus, UniProt P00743).
T2 construct: Factor Xa from bovine plasma; purchased Chromogenix; host or cells: bovine plasma
Nature of the experiment: Enzyme amidolytic assay, factor Xa inhibition (chromogenic substrate S-2222). The class given is biochemical. To be noted: for Ki: S-2222 substrate, 25 °C, Cheng and Prusoff. The protocol:
as §1, with “Thrombin (Thrombin from human plasma, Sigma, Taufkirchen, Germany) was tested at a final concentration of 0.5 NIH E/mL with the substrate S-2238 (H-D-Phenylalanyl-L-pipecolyl-L-arginine-p-nitroaniline dihydrochloride, Chromogenix AB, Mondal, Sweden) at 20 and 40 mM final concentration, and factor Xa (Factor Xa from bovine plasma, Chromogenix) at the final concentration of 1 mBAEE E/mL with the substrate S-2222 (N-Benzoyl-L-isoleucyl-L-glutamyl-glycyl-L-arginine-p-nitroaniline hydrochloride and its methyl ester, Chromogenix) at 100 and 200 mM final concentrations. Trypsin (Trypsin from bovine pancreas, Sigma) was assayed at a final concentration of 0.5 nkat/mL using the substrate S-2222 (Chromogenix) at 50 and 100 mM final concentrations.” left out, “Absorbance at 405 nm at 25 °C was measured every 10 s.” left out

The target in experiment [3] is T3, Trypsin from bovine pancreas (Bos taurus, UniProt P00760).
T3 construct: Trypsin from bovine pancreas; purchased Sigma; host or cells: bovine pancreas
The experiment in a line: Enzyme amidolytic assay, trypsin inhibition (chromogenic substrate S-2222). Type of experiment: biochemical. To be noted: for Ki: S-2222 substrate, 25 °C, Cheng and Prusoff. The protocol:
as §1

In experiment [4] the test system is Thrombin. Particulars: read-out: Thrombin Inhibition EC50; cited from earlier work.

T3 sequence (P00760 24-246): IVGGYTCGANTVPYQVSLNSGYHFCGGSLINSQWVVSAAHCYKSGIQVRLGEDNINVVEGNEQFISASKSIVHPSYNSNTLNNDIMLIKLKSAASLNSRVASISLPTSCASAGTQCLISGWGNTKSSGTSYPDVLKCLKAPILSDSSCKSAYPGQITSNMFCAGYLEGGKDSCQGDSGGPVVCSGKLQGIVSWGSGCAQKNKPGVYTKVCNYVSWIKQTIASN
T2 sequence (P00743 41-180): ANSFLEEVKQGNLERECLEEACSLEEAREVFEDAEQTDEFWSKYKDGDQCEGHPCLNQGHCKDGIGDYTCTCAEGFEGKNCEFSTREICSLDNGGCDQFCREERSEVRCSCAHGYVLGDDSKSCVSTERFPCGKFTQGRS
T2 sequence (P00743 234-492): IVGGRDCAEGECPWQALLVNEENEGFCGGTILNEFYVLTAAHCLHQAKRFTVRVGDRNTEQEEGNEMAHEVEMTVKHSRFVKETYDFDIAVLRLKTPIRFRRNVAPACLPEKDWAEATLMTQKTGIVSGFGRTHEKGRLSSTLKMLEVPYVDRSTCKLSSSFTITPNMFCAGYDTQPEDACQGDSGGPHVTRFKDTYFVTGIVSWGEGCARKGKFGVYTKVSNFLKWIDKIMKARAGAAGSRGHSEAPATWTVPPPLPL

In the case of `COC(=O)C(CCCNC(=N)N)NC(=O)C1Cc2ccccc2N1C(=O)C(CCc1ccccc1)NC(=O)C(O)Cc1ccc(O)cc1` (mixture of isomers) [Compound 11e], the figures for the Ki in experiment [1], in experiment [2] (read-out: Ki Factor Xa) and in experiment [3] were 30 ± 12 µM, 48 ± 5 µM and 3.9 ± 0.3 µM, respectively.
The like results for `COC(=O)C(CCCNC(=N)N)NC(=O)C1Cc2ccccc2N1C(=O)C(CCc1ccccc1)NC(=O)C(O)Cc1ccc(O)cc1` (mixture of isomers) [Compound 11k] were, in that order, 34 ± 10 µM, 57 ± 8 µM and 72 ± 6 µM.
As to `N=C(N)NCCC[C@@H](CO)NC(=O)[C@@H]1Cc2ccccc2N1C(=O)[C@@H](CCc1ccccc1)NC(=O)[C@@H](O)Cc1ccc(O)cc1` (mixture of isomers) [Compound 11l], the values for the Ki in experiment [1], in experiment [2] (read-out: Ki Factor Xa) and in experiment [3] were 186 ± 48 µM, 62 ± 4 µM and 62 ± 3 µM, respectively.
In the case of `C[C@H]1C[C@@H](C(=O)N[C@H](CO)CCCN=C(N)N)N(C(=O)[C@@H](CCc2ccc(O)cc2)NC(=O)[C@H](O)Cc2ccc(O)cc2)C1` (racemic) [spumigin A (racemate), spumigin A], the EC50 (in general, the midpoint of the concentration-response curve) in experiment [4] is 7.5 µM.
For the molecule `COC(=O)[C@H](CCCNC(=N)N)NC(=O)[C@H]1Cc2ccccc2N1C(=O)[C@@H](Cc1ccccc1)NC(=O)[C@H](O)Cc1ccccc1` (single isomer, unassigned) [Compound 11a], the Ki (commonly the dissociation constant of the complex between target and ligand, obtained from inhibition or displacement) was found to be 52 ± 10 µM in experiment [1], 49 ± 4 µM in experiment [2] (Ki Factor Xa) and 7.9 ± 3.5 µM in experiment [3].
For the molecule `COC(=O)[C@H](CCCNC(=N)N)NC(=O)[C@H]1Cc2ccccc2N1C(=O)[C@@H](CCc1ccccc1)NC(=O)[C@H](O)Cc1ccccc1` (single isomer, unassigned) [Compound 11b], the Ki in experiment [1] stood at 44 ± 7 µM; in experiment [2] (read-out: Ki Factor Xa), 39 ± 6 µM; in experiment [3] it was 2.8 ± 0.4 µM.
The like results for `N=C(N)NCCC[C@@H](CO)NC(=O)[C@H]1Cc2ccccc2N1C(=O)[C@@H](Cc1ccccc1)NC(=O)[C@H](O)Cc1ccccc1` (single isomer, unassigned) [Compound 11c] were, in that order, 92 ± 20 µM, 54 ± 3 µM and 54 ± 1 µM.
In the case of `N=C(N)NCCC[C@@H](CO)NC(=O)[C@H]1Cc2ccccc2N1C(=O)[C@@H](CCc1ccccc1)NC(=O)[C@H](O)Cc1ccccc1` (single isomer, unassigned) [Compound 11d], the Ki in experiment [1] came out at 11 ± 4 µM; in experiment [2] (Ki Factor Xa), 47 ± 6 µM; in experiment [3] it was 29 ± 2 µM.
The like results for `COC(=O)[C@H](CCCNC(=N)N)NC(=O)[C@@H]1Cc2ccccc2N1C(=O)[C@@H](Cc1ccccc1)NC(=O)[C@H](O)Cc1ccccc1` (single isomer, unassigned) [Compound 11g] were, in that order, 50 ± 9 µM, 47 ± 8 µM and 126 ± 14 µM.
Turning to `COC(=O)[C@H](CCCNC(=N)N)NC(=O)[C@@H]1Cc2ccccc2N1C(=O)[C@@H](CCc1ccccc1)NC(=O)[C@H](O)Cc1ccccc1` (single isomer, unassigned) [Compound 11h], the Ki stood at 24 ± 8 µM in experiment [1], 35 ± 9 µM in experiment [2] (read-out: Ki Factor Xa) and 58 ± 17 µM in experiment [3].
As to `N=C(N)NCCC[C@@H](CO)NC(=O)[C@@H]1Cc2ccccc2N1C(=O)[C@@H](Cc1ccccc1)NC(=O)[C@H](O)Cc1ccccc1` (single isomer, unassigned) [Compound 11i], the Ki in experiment [1] turned out to be 170 ± 58 µM; in experiment [2] (read-out: Ki Factor Xa), 51 ± 4 µM; in experiment [3] it was 50 ± 3 µM.
Consider `N=C(N)NCCC[C@@H](CO)NC(=O)[C@@H]1Cc2ccccc2N1C(=O)[C@@H](CCc1ccccc1)NC(=O)[C@H](O)Cc1ccccc1` (single isomer, unassigned) [Compound 11j], for which the values for the Ki in experiment [1], in experiment [2] (Ki Factor Xa) and in experiment [3] were 187 ± 79 µM, 41 ± 9 µM and 693 ± 159 µM, respectively.
With `N=C(N)NCCC[C@H](NC(=O)[C@H]1Cc2ccccc2N1C(=O)[C@@H](Cc1ccccc1)NC(=O)[C@H](O)Cc1ccccc1)C(=O)O` (single isomer, unassigned) [Compound 12g], the Ki worked out at 98 ± 26 µM in experiment [1], 69 ± 1 µM in experiment [2] (read-out: Ki Factor Xa) and 0.28 ± 0.04 µM in experiment [3].
Taken in the same sequence, the figures for `COC(=O)[C@H](CCCNC(=N)N)NC(=O)[C@@H]1Cc2ccccc2N1C(=O)[C@@H](CC(C)C)NC(=O)[C@H](O)Cc1ccccc1` (single isomer, unassigned) [Compound 29a] were 5.6 ± 0.3 µM, 30 ± 2 µM and 4.8 ± 0.7 µM.
Taken in the same sequence, the figures for `COC(=O)[C@H](CCCNC(=N)N)NC(=O)[C@H]1Cc2ccccc2N1C(=O)[C@@H](CC(C)C)NC(=O)[C@H](O)Cc1ccccc1` (single isomer, unassigned) [Compound 29b] were 129 ± 13 µM, 65 ± 2 µM and 134 ± 42 µM.
With `N=C(N)NCCCC(CO)NC(=O)C1Cc2ccccc2N1C(=O)C(CCc1ccccc1)NC(=O)C(O)Cc1ccc(O)cc1` (stereo not drawn) [Compound 11f], the values for the Ki in experiment [1], in experiment [2] (read-out: Ki Factor Xa) and in experiment [3] were 20 ± 3 µM, 76 ± 3 µM and 14 ± 1 µM, respectively.
Turning to `COC(=O)[C@@H](CCCNC(=N)N)NC(=O)[C@H]1CCCN1C(=O)[C@@H](CCc1ccccc1)NC(=O)[C@H](O)Cc1ccccc1` [Compound 21a, Methyl ((R)-2-((R)-2-hydroxy-3-phenylpropanamido)-4-phenylbutanoyl)-D-prolyl-D-argininate] (H-[dPhLac][d(hPhe)][dP][dR]-OMe), the results for the IC50 in experiment [1], in experiment [2] (in brackets in Ki Factor Xa column) and in experiment [3] (in brackets in Ki Trypsin column) were 33 µM, 29 µM and 4.2 µM, respectively. Moreover, the values for the Ki in experiment [1], in experiment [2] (read-out: Ki Factor Xa) and in experiment [3] were 3.8 ± 0.4 µM, 18 ± 4 µM and 1.4 ± 0.2 µM, respectively.
Regarding `COC(=O)C(CCCNC(=N)N)NC(=O)C1CCCN1C(=O)C(CCc1ccccc1)NC(=O)C(O)Cc1ccc(O)cc1` [Compound 21b, Methyl ((R)-2-((R,S)-2-hydroxy-3-(4-hydroxyphenyl)propanamido)-4-phenylbutanoyl)-D-prolyl-D-argininate], the values for the Ki in experiment [1], in experiment [2] (read-out: Ki Factor Xa) and in experiment [3] were 3.9 ± 0.4 µM, 29 ± 5 µM and 0.92 ± 0.08 µM, respectively.
`C[C@H]1C[C@@H](C(=O)N[C@H](CO)CCCN=C(N)N)N(C(=O)[C@@H](CCc2ccc(O)cc2)NC(=O)[C@H](O)Cc2ccc(O)cc2)C1` [spumigin A]: in experiment [4], the EC50 was 2.1 µM.
As to `C[C@H]1C[C@@H](C(=O)N(C)[C@H](CCCCN)C(=O)O)N(C(=O)[C@@H](CCc2ccc(O)cc2)NC(=O)[C@H](O)Cc2ccc(O)cc2)C1` [spumigin J], the EC50 in experiment [4] was 4.9 µM.
